Results on four compounds are retold here after ChEMBL document CHEMBL1201862, “PubChem BioAssay data set” (2004).

SMILES strings stand for the structures. The source made the active and inactive calls. A value given as a limit tells only on which side of the number the result lay.

What is called IC50 is the concentration needed to halve the response being measured. What is called AC50 is the midpoint of the concentration-response curve, whichever way the signal moves. Usually EC50 stands for the concentration needed to bring the measured effect to its halfway point. In general, CC50 refers to the concentration giving 50% cytotoxicity.

The target in assay [1] is Eukaryotic translation initiation factor 4H (Homo sapiens, UniProt Q15056). Put plainly: eIF4H inhibition in translation initiation, SAR follow-up (AID 435011). It counts as functional.
The target in assay [2] is T1, Polyadenylate-binding protein 1 (Homo sapiens, UniProt P11940). Put plainly: PABP inhibition in translation initiation, SAR follow-up (AID 435018). It counts as functional.
T1 sequence (P11940 whole entry): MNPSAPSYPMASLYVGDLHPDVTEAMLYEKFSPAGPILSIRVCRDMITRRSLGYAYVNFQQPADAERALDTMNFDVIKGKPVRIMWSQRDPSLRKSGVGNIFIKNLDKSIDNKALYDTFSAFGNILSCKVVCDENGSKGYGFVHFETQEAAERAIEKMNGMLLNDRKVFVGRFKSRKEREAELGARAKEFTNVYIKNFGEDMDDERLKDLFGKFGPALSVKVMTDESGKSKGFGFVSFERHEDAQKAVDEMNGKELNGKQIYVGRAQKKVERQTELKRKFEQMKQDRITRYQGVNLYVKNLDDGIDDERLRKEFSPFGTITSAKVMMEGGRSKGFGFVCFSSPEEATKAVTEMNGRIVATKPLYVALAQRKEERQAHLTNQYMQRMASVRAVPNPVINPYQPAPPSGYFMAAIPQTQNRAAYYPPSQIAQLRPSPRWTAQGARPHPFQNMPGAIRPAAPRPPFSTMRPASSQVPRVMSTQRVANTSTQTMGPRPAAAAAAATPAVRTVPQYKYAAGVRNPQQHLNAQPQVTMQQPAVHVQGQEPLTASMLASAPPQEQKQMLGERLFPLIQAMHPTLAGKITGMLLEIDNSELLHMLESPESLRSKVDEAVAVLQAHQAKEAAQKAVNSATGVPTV
In assay [3] the target is T1, Polyadenylate-binding protein 1. Put plainly: SAR analysis for the identification of translation initiation inhibitors (PABP) via an Electrophoretic Mobility Shift Dose Response Assay. [Related pubchem assays (depositor defined):AID2012, AID2014, AID2030]. It counts as functional. On the technique in general: A gel shift assay detects complexes by their altered migration in electrophoresis.

For assay [4], the target named is FAD-linked sulfhydryl oxidase ALR (Homo sapiens, UniProt P55789). In words: inhibitors of human ALR sulfhydryl oxidase, dose response, biochemical, H2O2 detection, luminescence, cherry-pick (AID 493248).
Sequence of FAD-linked sulfhydryl oxidase ALR (P55789 whole entry): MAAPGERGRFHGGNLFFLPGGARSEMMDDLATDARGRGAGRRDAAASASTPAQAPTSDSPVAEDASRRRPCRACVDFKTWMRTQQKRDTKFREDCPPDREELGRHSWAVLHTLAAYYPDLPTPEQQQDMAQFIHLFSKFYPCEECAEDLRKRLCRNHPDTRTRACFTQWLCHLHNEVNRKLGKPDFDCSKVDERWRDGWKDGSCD
The target of assay [5] is Intestinal-type alkaline phosphatase (Homo sapiens, UniProt P09923). In words: activation of human intestinal alkaline phosphatase – biochemical, dose response (AID 488873). Format: functional.
Sequence of Intestinal-type alkaline phosphatase (Homo sapiens, UniProt P09923) (P09923 whole entry): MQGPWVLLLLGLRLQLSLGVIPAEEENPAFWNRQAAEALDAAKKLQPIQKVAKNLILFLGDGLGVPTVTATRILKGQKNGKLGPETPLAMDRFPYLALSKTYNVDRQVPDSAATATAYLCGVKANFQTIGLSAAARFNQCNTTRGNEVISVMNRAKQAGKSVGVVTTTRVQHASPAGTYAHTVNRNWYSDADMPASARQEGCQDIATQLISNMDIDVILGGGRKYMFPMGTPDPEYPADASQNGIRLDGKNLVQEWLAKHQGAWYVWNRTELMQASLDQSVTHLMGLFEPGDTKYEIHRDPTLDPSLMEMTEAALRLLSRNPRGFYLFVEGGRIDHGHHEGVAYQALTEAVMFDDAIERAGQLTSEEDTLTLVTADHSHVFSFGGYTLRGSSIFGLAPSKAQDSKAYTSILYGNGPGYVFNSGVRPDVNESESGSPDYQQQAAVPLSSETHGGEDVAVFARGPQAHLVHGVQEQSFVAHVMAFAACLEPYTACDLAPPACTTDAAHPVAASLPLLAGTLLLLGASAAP
For assay [6], the target named is Intestinal-type alkaline phosphatase (Mus musculus, UniProt P24822). In words: PubChem AID 488785. Format: functional.
Sequence of Intestinal-type alkaline phosphatase (Mus musculus, UniProt P24822) (P24822 whole entry): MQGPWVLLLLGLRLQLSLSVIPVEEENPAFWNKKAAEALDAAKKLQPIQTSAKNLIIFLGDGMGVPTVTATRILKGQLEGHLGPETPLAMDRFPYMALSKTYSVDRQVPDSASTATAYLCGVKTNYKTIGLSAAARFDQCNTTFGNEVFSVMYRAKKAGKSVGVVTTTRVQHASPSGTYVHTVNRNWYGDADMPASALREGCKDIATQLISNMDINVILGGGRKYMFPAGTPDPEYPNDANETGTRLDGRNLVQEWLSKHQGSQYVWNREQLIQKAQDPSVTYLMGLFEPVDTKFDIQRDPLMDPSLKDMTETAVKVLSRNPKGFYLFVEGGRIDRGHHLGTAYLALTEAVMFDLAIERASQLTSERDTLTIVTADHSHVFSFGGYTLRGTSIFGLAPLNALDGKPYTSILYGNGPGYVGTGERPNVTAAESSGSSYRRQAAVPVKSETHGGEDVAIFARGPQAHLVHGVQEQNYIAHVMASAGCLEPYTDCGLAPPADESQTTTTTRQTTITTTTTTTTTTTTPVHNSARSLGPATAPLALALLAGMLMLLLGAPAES
Assay [7] has as its target T2, Alkaline phosphatase, tissue-nonspecific isozyme (Homo sapiens, UniProt P05186).
T2 sequence (P05186 whole entry): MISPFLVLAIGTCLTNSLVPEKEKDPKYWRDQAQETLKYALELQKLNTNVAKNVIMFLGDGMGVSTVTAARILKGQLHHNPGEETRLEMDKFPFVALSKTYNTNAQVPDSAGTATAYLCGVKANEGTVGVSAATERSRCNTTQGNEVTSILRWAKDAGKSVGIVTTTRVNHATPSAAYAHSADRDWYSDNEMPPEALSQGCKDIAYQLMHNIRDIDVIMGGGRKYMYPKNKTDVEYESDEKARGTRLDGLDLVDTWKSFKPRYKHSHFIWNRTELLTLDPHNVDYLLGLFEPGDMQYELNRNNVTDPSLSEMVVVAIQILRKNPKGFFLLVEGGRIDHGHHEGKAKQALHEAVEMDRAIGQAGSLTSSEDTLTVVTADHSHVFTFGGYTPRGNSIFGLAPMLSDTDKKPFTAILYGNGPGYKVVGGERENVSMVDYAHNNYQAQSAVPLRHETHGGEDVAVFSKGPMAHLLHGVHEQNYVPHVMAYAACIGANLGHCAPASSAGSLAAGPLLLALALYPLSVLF
In words: TNAP enzyme inhibition by screening hits, dose response, selectivity assay for mouse IAP inhibitor project, biochemical, human TNAP, uHTS hits (AID 488906). It counts as functional.

Assay [8] can be described thus: Artemis endonuclease inhibitor potency, dose response, biochemical, fluorescence intensity (AID 720701).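 Further: Artemis endonuclease enzyme.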 Format: functional.
The target in assay [9] is T3, SUMO-activating enzyme (Homo sapiens, UniProt Q9UBT2). Put plainly: SUMOylation inhibitor hit validation, confirmation, SUMOylation inhibitor project, biochemical, AlphaScreen (AID 2018). Format: functional. For orientation: In Alpha technology, singlet oxygen from a donor bead excites a nearby acceptor bead.
T3 sequence (Q9UBE0 whole entry): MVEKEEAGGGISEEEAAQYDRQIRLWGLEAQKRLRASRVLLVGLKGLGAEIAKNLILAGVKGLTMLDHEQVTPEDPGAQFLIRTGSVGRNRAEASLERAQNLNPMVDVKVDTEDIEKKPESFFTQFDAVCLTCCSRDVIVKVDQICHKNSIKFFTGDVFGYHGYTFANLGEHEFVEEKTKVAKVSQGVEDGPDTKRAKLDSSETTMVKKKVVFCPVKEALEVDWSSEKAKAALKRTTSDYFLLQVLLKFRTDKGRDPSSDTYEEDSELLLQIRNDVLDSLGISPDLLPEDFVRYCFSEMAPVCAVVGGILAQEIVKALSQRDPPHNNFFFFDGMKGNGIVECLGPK
T3 sequence (Q9UBT2 whole entry): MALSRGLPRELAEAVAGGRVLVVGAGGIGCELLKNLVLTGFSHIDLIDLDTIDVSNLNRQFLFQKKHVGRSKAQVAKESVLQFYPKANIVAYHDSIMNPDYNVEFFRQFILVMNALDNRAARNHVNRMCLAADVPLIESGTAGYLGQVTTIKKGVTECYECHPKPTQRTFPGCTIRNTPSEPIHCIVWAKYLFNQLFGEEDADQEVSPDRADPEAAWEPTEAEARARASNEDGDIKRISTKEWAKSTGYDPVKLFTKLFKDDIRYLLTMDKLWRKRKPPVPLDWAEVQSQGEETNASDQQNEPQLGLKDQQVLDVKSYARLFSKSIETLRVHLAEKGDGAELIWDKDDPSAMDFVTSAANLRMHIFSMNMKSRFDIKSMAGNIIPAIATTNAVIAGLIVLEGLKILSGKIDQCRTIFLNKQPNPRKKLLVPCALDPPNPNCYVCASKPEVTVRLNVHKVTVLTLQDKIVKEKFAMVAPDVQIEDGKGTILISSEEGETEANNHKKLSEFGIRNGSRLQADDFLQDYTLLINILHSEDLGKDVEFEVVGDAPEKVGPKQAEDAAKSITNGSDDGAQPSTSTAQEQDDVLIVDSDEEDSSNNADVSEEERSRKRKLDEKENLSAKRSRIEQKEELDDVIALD
The target of assay [10] is T3, SUMO-activating enzyme. In words: inhibitors of in vitro SUMOylation cascade, primary screen, biochemical, HTRF, uHTS (AID 2006). Format: protein-complex assay.
Assay [11] in a line: inhibitors of intracellular T. cruzi replication, confirmation, NIH3T3 host cells, beta-gal luminescence (AID 2044).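 Further: intracellular parasites grown in NIH/3T3 mouse fibroblasts as host cells; luminescent beta-galactosidase reporter signal from transgenic T. cruzi replicating inside host cells; inhibitors lower the luminescence signal.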 Format: functional, cell-based.
Assay [12] in a line: cytotoxicity toward NIH3T3 fibroblasts, dose response, counter-screen, cell-based, ATP luminescence, mouse fibroblasts (AID 2010).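 Further: cells exposed to compound for about 90 hours before reading.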 It counts as functional. (In general: A counterscreen serves to expose hits that act by an unwanted route or on another target.)
The target in assay [13] is T4, Replicative DNA helicase DnaB (Mycobacterium tuberculosis, UniProt P9WMR3).
T4 sequence (P9WMR3 whole entry): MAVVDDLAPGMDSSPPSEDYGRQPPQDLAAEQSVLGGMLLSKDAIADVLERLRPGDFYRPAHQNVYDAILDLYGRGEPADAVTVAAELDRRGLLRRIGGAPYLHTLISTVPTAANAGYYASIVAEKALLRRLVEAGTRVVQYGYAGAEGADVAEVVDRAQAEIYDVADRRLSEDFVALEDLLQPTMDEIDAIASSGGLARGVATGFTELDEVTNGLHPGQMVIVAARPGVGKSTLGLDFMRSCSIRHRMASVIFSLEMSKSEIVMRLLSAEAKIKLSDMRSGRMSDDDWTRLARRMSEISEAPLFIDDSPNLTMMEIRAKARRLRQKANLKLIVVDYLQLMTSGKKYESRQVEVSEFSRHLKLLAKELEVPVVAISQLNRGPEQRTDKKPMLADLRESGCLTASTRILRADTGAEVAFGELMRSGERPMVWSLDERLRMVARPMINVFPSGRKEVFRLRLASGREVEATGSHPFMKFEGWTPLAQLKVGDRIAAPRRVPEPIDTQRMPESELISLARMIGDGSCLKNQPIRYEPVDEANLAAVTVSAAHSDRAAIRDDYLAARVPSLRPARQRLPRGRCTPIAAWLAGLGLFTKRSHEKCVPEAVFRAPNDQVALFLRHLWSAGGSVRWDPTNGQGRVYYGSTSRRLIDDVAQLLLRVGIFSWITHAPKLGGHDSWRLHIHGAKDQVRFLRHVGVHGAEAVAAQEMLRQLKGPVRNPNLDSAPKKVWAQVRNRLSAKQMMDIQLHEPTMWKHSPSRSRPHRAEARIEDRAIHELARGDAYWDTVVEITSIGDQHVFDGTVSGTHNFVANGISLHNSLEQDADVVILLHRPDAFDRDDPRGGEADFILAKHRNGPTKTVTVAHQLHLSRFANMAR
Put plainly: DnaB intein splicing inhibitors, dose response, biochemical, cell-free fluorescence (AID 449749). It counts as functional.

In the next assay the test system is Vero. Put plainly: Vero cell cytotoxicity, cytotoxicity control for flavivirus capping enzyme inhibitors (AID 588742). Format: functional. The settings on record: Chlorocebus sabaeus.
A further assay deals with T5, Protein RecA (Mycobacterium tuberculosis, UniProt P9WHJ3).
T5 sequence (P9WHJ3 whole entry): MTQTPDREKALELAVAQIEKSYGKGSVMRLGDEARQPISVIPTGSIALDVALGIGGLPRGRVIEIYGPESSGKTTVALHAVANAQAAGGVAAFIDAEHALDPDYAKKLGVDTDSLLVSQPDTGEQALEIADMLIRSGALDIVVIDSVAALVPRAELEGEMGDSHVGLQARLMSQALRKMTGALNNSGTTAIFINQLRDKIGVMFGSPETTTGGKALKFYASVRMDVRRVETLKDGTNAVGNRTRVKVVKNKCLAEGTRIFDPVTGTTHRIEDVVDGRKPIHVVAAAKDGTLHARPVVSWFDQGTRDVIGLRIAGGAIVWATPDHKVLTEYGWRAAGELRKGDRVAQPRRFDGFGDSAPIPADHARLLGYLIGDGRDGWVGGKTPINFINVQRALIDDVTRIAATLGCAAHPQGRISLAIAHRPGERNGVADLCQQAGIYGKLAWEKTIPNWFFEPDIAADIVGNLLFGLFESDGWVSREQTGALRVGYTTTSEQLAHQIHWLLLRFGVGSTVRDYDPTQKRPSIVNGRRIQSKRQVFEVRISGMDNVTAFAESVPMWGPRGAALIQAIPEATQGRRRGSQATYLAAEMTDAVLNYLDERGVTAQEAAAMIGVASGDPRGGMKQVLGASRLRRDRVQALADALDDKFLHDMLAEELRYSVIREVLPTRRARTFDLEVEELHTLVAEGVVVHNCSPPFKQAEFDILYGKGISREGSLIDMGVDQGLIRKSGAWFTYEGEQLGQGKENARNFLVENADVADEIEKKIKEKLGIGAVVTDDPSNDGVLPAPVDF
In words: Fluorescence Cell-Free Homogeneous Dose Retest to Identify Inhibitors of RecA-Intein Splicing Activity. [Related pubchem assays (depositor defined):AID2097, AID2223, AID489010, AID492950]. It counts as functional.

The target in assay [14] is Tyrosine-protein phosphatase non-receptor type 7 (Homo sapiens, UniProt P35236). Format: functional.
Sequence of Tyrosine-protein phosphatase non-receptor type 7 (P35236 whole entry): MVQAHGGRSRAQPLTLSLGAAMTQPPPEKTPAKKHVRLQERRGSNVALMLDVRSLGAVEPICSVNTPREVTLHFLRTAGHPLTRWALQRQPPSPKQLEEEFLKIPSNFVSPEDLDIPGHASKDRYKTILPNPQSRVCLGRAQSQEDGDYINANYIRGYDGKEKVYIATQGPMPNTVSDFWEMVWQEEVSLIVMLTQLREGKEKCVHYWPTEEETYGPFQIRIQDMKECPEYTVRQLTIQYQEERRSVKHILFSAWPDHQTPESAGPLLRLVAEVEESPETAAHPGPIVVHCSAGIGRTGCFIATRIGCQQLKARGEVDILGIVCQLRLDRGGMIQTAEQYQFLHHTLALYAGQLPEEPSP
Assay [15] addresses T6, Tyrosine-protein phosphatase non-receptor type 22 (Homo sapiens, UniProt Q9Y2R2).
T6 sequence (Q9Y2R2 whole entry): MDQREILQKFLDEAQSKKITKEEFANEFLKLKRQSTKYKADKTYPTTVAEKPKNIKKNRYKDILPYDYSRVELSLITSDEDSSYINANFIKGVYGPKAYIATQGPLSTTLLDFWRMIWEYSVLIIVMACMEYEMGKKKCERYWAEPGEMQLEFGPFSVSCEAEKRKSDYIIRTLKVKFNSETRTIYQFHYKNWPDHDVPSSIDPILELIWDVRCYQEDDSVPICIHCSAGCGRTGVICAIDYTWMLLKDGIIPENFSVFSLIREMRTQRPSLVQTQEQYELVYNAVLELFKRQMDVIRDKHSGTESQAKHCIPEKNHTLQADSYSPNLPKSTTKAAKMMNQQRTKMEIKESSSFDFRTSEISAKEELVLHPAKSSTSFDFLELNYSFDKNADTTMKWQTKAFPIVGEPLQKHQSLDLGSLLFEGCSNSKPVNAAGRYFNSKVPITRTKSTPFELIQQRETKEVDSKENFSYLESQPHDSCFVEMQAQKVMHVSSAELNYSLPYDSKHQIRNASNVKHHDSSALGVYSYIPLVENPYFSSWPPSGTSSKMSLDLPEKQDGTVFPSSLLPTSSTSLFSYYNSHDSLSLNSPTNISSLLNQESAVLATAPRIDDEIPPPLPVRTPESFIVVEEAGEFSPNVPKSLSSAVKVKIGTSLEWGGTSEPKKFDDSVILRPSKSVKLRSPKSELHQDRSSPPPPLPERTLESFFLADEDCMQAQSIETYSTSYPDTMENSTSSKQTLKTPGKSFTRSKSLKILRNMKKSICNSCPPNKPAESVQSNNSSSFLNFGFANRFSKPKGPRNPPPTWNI
It counts as functional.

The target in assay [16] is T6, Tyrosine-protein phosphatase non-receptor type 22. Format: functional. This is another data set of the same source.

As to `COc1ccc(N2Cc3cccc(C(=O)NC(C)CCc4ccco4)c3C2=O)cc1` (stereo not drawn), the IC50 in assay [1] was 5.42 µM (active); in assay [2], > 100 µM (inactive); in assay [3], 10 µM (active). Further, the AC50 in [4] was 1.06 µM (active).
For `O=C(O)CC(C(=O)O)N1C(=O)/C(=C/c2ccc(-c3nc4ccccc4s3)o2)SC1=S` (stereo not drawn), the EC50 in assay [5] is > 100 µM (inactive). The IC50 was 13.4 µM (active) in assay [6], 24.3 µM (active) in assay [7] and > 20 µM (inactive) in assay [8].
For the compound `CCCCCn1c(NC(=O)c2ccco2)c(S(=O)(=O)c2ccc(C)cc2)c2nc3ccccc3nc21`, the figures for the IC50 at SUMO-activating enzyme [9] and on SUMO-activating enzyme [10] were 2.74 µM (active) and 13.1 µM (active), respectively. Also, the results for the concentration giving a half-maximal response (EC50) (in assay [11]; in [12]; on Protein RecA) were 3.27 µM (active), > 60 µM (not active) and > 380 µM (inconclusive), respectively. Further, the AC50 in [13] is > 380 µM (inactive). In the assay on Vero, the CC50 is > 40 µM (active).
On to `O=C1C=C(NCCNc2c(F)c(F)c(CO)c(F)c2F)CCC1`, for which the IC50 in [14], in assay [15] and in assay [16] was > 79.4 µM (inactive) in each case.
